Structures can show the parent of a compound that is named as a salt. Where two headings read alike, the source gives them in different places.
What was measured:
5-HT1A receptors [1] = target: T1, 5-HT1A receptors (Rattus norvegicus, UniProt P19327); test: In vivo test of "tail-flicks" (antagonism of 8-OH-DPAT-induced spontaneous tail movements); set-up: from tissue; host or cells: whole rat in vivo; conditions: subcutaneous injection; for ED50: sc, against subcutaneous 8-OH-DPAT, read-out: ED50, the amount which reduces the action of 8-OH-DPAT by 50%
T1 sequence (P19327 1-422): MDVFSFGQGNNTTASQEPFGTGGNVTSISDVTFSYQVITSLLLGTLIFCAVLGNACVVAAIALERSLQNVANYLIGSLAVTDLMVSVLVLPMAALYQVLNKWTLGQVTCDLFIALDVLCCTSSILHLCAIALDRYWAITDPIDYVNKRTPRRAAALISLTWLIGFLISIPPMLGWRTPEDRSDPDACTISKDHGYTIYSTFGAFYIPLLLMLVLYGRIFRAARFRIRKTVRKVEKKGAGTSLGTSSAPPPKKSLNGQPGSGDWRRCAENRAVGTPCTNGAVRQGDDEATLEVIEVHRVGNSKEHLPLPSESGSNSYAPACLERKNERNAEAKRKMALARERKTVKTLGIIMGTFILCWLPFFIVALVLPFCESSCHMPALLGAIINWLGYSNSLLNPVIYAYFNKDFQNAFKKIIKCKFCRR
Excerpt: The potential of the compounds of the invention to act in vivo on the 5-HT1A receptors was brought out following a method perfected by Millan et al. (Neurosci. Lett., 1989, 107, 227-232). […] This model then was used to evaluate the potential of the compounds of the invention administered by subcutaneous injection, to interact with the 5-HT1A receptors in the rat. The ED50, that is the amount which reduces the action of 8-OH-DPAT by 50%, was thus determined.

5-HT1A receptors [2] = target: T1, 5-HT1A receptors; test: Affinity for 5-HT1A receptors in vitro ([3H]-8-OH-DPAT binding, rat hippocampus membranes); set-up: from tissue; host or cells: hippocampus membranes of male Wistar rats; species or system male Wistar rats
Procedure: The tests were carried out on tissue from the hippocampus of decapitated male Wistar rats. The rats were sacrificed 48 hours before the experiment and the isolated tissues were preserved at -86° C.
In order to prepare the membranes, the tissues were homogenized at 0° C. in 20 volumes of 50 mM Tris HCl buffer solution (pH 7.7, adjusted with 5N HCl at 25° C.), with a Polytron homogenizer for 6 seconds. The whole was then centrifuged (35,000 g for 20 minutes at 4° C.). Homogenization followed by centrifugation was repeated a second time under the same conditions. The pellet thus obtained was suspended for a final time in 20 volumes of the above buffer, incubated for 15 minutes at 37° C., then again centrifuged. […]
The compounds to be tested were put into solution in the incubation buffer. Test solutions were prepared by placing in 12×75 mm glass tubes, 10 μl of the solution of the compounds to be tested, 100 μl of a solution containing […] of [^3 H]-8-OH-DPAT (specific radioactivity 205 Ci/mmol). Non-specific binding was determined with the aid of a solution of 5-hydroxytryptamine (10 μM), and represented 5 to 10% of the final binding. […] Radioactivity was then determined with the aid of external standards.
The pKi values were determined by the CheungPrusoff equation: [formula]

5-HT1A receptors [3] = target: T1, 5-HT1A receptors; set-up: from tissue; host or cells: whole rat in vivo; conditions: subcutaneous injection; cited from earlier work
5-HT1A receptors [4] = target: T1, 5-HT1A receptors; set-up: The tests were carried out on tissue from the hippocampus of decapitated male Wistar rats; from tissue; host or cells: hippocampus membranes of male Wistar rats; conditions: reference ligand 8-OH-DPAT; cited from earlier work

Structure (SMILES)	ED50 (5-HT1A receptors [1])	properties towards the 5-HT1A receptors (in words) (5-HT1A receptors [1])	Ki (5-HT1A receptors [2])	Ki (5-HT1A receptors [2]; rat hippocampus, [3H]-8-OH-DPAT, 30 minutes at 37° C., pKi by CheungPrusoff equation, read-out: pKi (converted))	induction of spontaneous movements of the tail (in words) (5-HT1A receptors [3])	affinity for the 5-HT1A sites of the reference (in words) (5-HT1A receptors [4])	selectivity for the 5-HT1A sites of the reference (in words) (5-HT1A receptors [4])
COc1cccc2c1OC(CNCC1CCN(c3nc4ccccc4s3)CC1)CO2 (stereo not drawn) [Example 16, 1-(BENZOTHIAZOL-2-YL)-4-[(8-METHOXY-1,4-BENZODIOXAN-2-YL)-METHYLAMINOMETHYL]PIPERIDINE DIHYDROCHLORIDE]	0.31 mg/kg	antagonist properties	0.501 nM	–	–	–	–
COc1ccccc1OCCNCC1CCN(c2nc3ccccc3o2)CC1.Cl.Cl [Example 44, 1-(BENZOXAZOL-2-YL)-4-[[2-(2-METHOXYPHENOXY)ETHYL]AMINOMETHYL]PIPERIDINE DIHYDROCHLORIDE]	0.31 mg/kg	antagonist properties	–	1 nM	–	–	–
CCCN(CCC)C1CCc2cccc(O)c2C1 (stereo not drawn) [Example 8-OH-DPAT, 8-hydroxy-2-(dipropylamino)tetraline]	–	–	–	–	marked spontaneous movements of the tail	very great affinity	great selectivity

From patent US5229398A, “Aminomethylpiperidine compounds” (Adir et Compagnie, priority 1990, dated 1993)
